In the first assay the target is T1, HCV NS3-4A serine protease (full-length NS3-4A protein, genotype 1a, strain HCV-1) (Hepatitis C virus genotype 1a, UniProt P26664).
T1 construct: using the full-length NS3-4A protein (genotype 1a, strain HCV-1)
T1 sequence (P26664 1658-1711): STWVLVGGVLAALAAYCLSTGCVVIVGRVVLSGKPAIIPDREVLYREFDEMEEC
T1 sequence (P26664 1027-1657): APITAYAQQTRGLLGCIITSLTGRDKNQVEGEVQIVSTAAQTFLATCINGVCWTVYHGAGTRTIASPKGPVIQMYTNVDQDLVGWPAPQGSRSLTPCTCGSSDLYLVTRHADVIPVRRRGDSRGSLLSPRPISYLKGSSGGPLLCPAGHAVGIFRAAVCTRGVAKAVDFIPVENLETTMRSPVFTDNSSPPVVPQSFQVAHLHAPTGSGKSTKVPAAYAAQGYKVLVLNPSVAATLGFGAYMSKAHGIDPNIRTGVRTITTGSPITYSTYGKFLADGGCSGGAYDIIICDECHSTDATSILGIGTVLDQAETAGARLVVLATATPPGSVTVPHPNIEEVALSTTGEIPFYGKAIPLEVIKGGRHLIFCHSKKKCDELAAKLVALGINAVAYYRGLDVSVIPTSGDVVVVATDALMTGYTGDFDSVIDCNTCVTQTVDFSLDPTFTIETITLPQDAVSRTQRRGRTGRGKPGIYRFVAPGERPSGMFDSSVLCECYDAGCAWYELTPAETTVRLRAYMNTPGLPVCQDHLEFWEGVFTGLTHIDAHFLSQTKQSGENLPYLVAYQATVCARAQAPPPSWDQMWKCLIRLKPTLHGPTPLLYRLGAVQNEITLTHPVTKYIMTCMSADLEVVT
The assay can be described thus: HCV NS3-4A protease assay. Format: biochemical. The settings on record: Protease IC50. Here is the method:
The inhibitory activity of certain compounds of Table A against HCV NS3-4A serine protease is determined in a homogenous assay using the full-length NS3-4A protein (genotype 1a, strain HCV-1) and a commercially available internally-quenched fluorogenic peptide substrate as described by Taliani, M., et al. 1996 Anal. Biochem. 240:60-67, which is incorporated by reference in its entirety.
For orientation: IC50 means the concentration that inhibits the measured activity by half. Regarding `C=C[C@@H]1C[C@]1(NC(=O)[C@@H]1C[C@@]2(CN1C(=O)[C@@H](NC(=O)C(NC(=O)c1cc(C(C)(C)C)nn1C)C1CCCCC1)C(C)(C)C)C(C)(C)C21CCC1)C(=O)NS(=O)(=O)C1CC1` (stereo partly drawn) [Compound 126, (5R,8S)-7-[(2S)-2-{[{[(3-tert-butyl-1-methyl-1H-pyrazol-5-yl)carbonyl]amino}(cyclohex-yl)acetyl]amino}-3,3-dimethylbutanoyl]-N-{(1R,2S)-1-[(cyclopropylsulfonyl)carba-moyl]-2-vinylcyclopropyl}-10,10-dimethyl-7-azadispiro[3.0.4.1]decane-8-carboxamide], half-maximal inhibition (IC50) required 8 nM.
The same measure, in the same setting: then `C=C[C@@H]1C[C@]1(NC(=O)[C@@H]1C[C@@]2(CN1C(=O)[C@@H](NC(=O)[C@@H](NC(=O)c1ncc[nH]1)C(C)(C)C)C(C)(C)C)C(C)(C)C21CCC1)C(=O)NS(=O)(=O)C1CC1` [Compound 122, (5R,8S)-N-{(1R,2S)-1-[(cyclopropylsulfonyl)carba-moyl]-2-vinylcyclopropyl}-7-[(2S)-2-({(2S)-2-[(1H-imidazol-2-ylcarbonyl)amino]-3,3-dimethylbutanoyl}amino)-3,3-dimethylbutanoyl]-10,10-dimethyl-7-azadispiro[3.0.4.1]decane-8-carboxamide], with 3 nM; and `C=C[C@@H]1C[C@]1(NC(=O)[C@@H]1C[C@@]2(CN1C(=O)[C@@H](NC(=O)[C@@H](NC(=O)c1cccnc1)C1CCCCC1)C(C)(C)C)C(C)(C)C21CCC1)C(=O)NS(=O)(=O)C1CC1` [Compound 95, (5R,8S)-7-[(2S)-2-({(2S)-2-cyclohexyl-2-[(pyridin-3-ylcarbonyl)amino]acetyl}amino)-3,3-dimethylbutanoyl]-N-{(1R,2S)-1-[(cyclopropylsulfonyl)carba-moyl]-2-vinylcyclopropyl}-10,10-dimethyl-7-azadispiro[3.0.4.1]decane-8-carboxamide], with 0.9 nM.
The same measure, in the same setting: next, `CC(C)N1CCCC[C@H]1C(=O)N[C@H](C(=O)N[C@H](C(=O)N1C[C@]2(C[C@H]1C(=O)NC1(C(=O)NS(=O)(=O)C3CC3)CCCC1)C(C)(C)C21CCC1)C(C)(C)C)C1CCCCC1` [Compound 84, (5R,8S)-7-[(2S)-2-{[(2S)-2-cyclohexyl-2-({[(2S)-1-isopropylpiperidin-2-yl]carbonyl}amino)acetyl]amino}-3,3-dimethylbutanoyl]-N-{1-[(cyclopropylsulfonyl)carba-moyl]cyclopentyl}-10,10-dimethyl-7-azadispiro[3.0.4.1]decane-8-carboxamide]: 100 nM.
The molecule `C=C[C@H]1C[C@@]1(NC(=O)[C@@H]1C[C@@]2(CN1C(=O)[C@@H](NC(=O)[C@@H](NC(=O)c1ccccc1N(C)C)C(C)(C)C)C(C)(C)C)C(C)(C)C21CCC1)C(=O)NS(=O)(=O)C1CC1` [Compound 130, (5R,8S)-N-{(1S,2R)-1-[(cyclopropylsulfonyl)carba-moyl]-2-vinylcyclopropyl}-7-[(2S)-2-{[(2S)-2-{[2-(dimethylamino)benzoyl]amino}-3,3-dimethylbutanoyl]amino}-3,3-dimethylbutanoyl]-10,10-dimethyl-7-azadispiro[3.0.4.1]decane-8-carboxamide] returned a 50% inhibitory concentration (IC50) of 5.5 nM.
As to `C=C[C@@H]1C[C@]1(NC(=O)[C@@H]1C[C@@]2(CN1C(=O)[C@@H](NC(=O)[C@@H](NC(=O)C(C)(C)N1CCCC1)C1CCCCC1)C(C)(C)C)C(C)(C)C21CCC1)C(=O)NS(=O)(=O)C1CC1` [Compound 89, (5R,8S)-7-[(2S)-2-({(2S)-2-cyclohexyl-2-[(2-methyl-2-pyrrolidin-1-ylpropanoyl)amino]acetyl}amino)-3,3-dimethylbutanoyl]-N-{(1R,2S)-1-[(cyclopropylsulfonyl)carba-moyl]-2-vinylcyclopropyl}-10,10-dimethyl-7-azadispiro[3.0.4.1]decane-8-carboxamide], the midpoint of inhibition, the IC50, lay at 0.8 nM.
The same measure, in the same setting: next, `C=CCC(C)(NC(=O)[C@@H]1C[C@@]2(CN1C(=O)[C@@H](NC(=O)[C@@H](NC(=O)[C@@H]1CCCCN1C(C)C)C(C)(C)C)C(C)(C)C)C(C)(C)C21CCC1)C(=O)NS(=O)(=O)C1CC1` (stereo partly drawn) [Compound 85, (5R,8S)-N-{1-[(cyclopropylsulfonyl)carba-moyl]-1-methylbut-3-en-1-yl}-7-[(2S)-2-{[(2S)-2-({[(2S)-1-isopropylpiperidin-2-yl]carbonyl}amino)-3,3-dimethylbutanoyl]amino}-3,3-dimethylbutanoyl]-10,10-dimethyl-7-azadispiro[3.0.4.1]decane-8-carboxamide]: 7630 nM.
Still for that read-out and setting: next, `C=C[C@H]1C[C@@]1(NC(=O)[C@@H]1C[C@@]2(CN1C(=O)[C@@H](NC(=O)[C@@H](NC(=O)c1ccno1)C1CCCCC1)C(C)(C)C)C(C)(C)C21CCC1)C(=O)NS(=O)(=O)C1CC1` [Compound 107, (5R,8S)-7-[(2S)-2-({cyclohexyl[(isoxazol-5-ylcarbonyl)amino]acetyl}amino)-3,3-dimethylbutanoyl]-N-{(1R,2S)-1-[(cyclopropylsulfonyl)carba-moyl]-2-vinylcyclopropyl}-10,10-dimethyl-7-azadispiro[3.0.4.1]decane-8-carboxamide]: 0.6 nM; `C=C[C@@H]1C[C@]1(NC(=O)[C@@H]1C[C@@]2(CN1C(=O)[C@@H](NC(=O)[C@@H](NC(=O)[C@@H]1CCN1C(C)C)C(C)(C)C)C(C)(C)C)C(C)(C)C21CCC1)C(=O)NS(=O)(=O)C1CC1` [Compound 131, (5R,8S)-N-{(1R,2S)-1-[(cyclopropylsulfonyl)carba-moyl]-2-vinylcyclopropyl}-7-[(2S)-2-{[(2S)-2-({[(2S)-1-isopropylazetidin-2-yl]carbonyl}amino)-3,3-dimethylbutanoyl]amino}-3,3-dimethylbutanoyl]-10,10-dimethyl-7-azadispiro[3.0.4.1]decane-8-carboxamide]: 0.8 nM; `CC(C)N1CCCC[C@H]1C(=O)N[C@H](C(=O)N[C@H](C(=O)N1C[C@]2(C[C@H]1C(=O)NC1(C(=O)NS(=O)(=O)C3CC3)CCC1)C(C)(C)C21CCC1)C(C)(C)C)C(C)(C)C` [Compound 133, (5R,8S)-N-{1-[(cyclopropylsulfonyl)carba-moyl]cyclobutyl}-7-[(2S)-2-{[(2S)-2-({[(2S)-1-isopropylpiperidin-2-yl]carbonyl}amino)-3,3-dimethylbutanoyl]amino}-3,3-dimethylbutanoyl]-10,10-dimethyl-7-azadispiro[3.0.4.1]decane-8-carboxamide]: 450 nM.
On the same count and under the same terms, next, `C=C[C@@H]1C[C@]1(NC(=O)[C@@H]1C[C@@]2(CN1C(=O)[C@@H](NC(=O)[C@@H](NC(=O)[C@@H]1CCCCN1C(C)C)C(C)(C)C)C(C)(C)C)C(C)(C)C21CCC1)C(=O)NS(=O)(=O)c1ccccc1` [Compound 17, (5R,8S)-7-[(2S)-2-{[(2S)-2-({[(2S)-1-isopropylpiperidin-2-yl]carbonyl}amino)-3,3-dimethylbutanoyl]amino}-3,3-dimethylbutanoyl]-10,10-dimethyl-N-{(1R,2S)-1-[(phenylsulfonyl)carbamoyl]-2-vinylcyclopropyl}-7-azadispiro[3.0.4.1]decane-8-carboxamide]: 4.5 nM.
In turn, `C=C[C@@H]1C[C@]1(NC(=O)[C@@H]1C[C@@]2(CN1C(=O)[C@@H](NC(=O)[C@@H](NC(=O)C1CNC(=O)N1)C(C)(C)C)C(C)(C)C)C(C)(C)C21CCC1)C(=O)NS(=O)(=O)C1CC1` (stereo partly drawn) [Compound 40, (5R,8S)-N-{(1R,2S)-1-[(cyclopropylsulfonyl)carba-moyl]-2-vinylcyclopropyl}-7-[(2S)-2-{[(2S)-3,3-dimethyl-2-{[(2-oxoimidazolidin-4-yl)carbonyl]amino}butanoyl]amino}-3,3-dimethylbutanoyl]-10,10-dimethyl-7-azadispiro[3.0.4.1]decane-8-carboxamide] showed an IC50 of 10 nM.
Same read-out and setting: then `C=C[C@H]1C[C@@]1(NC(=O)[C@@H]1C[C@@]2(CN1C(=O)[C@@H](NC(=O)[C@@H](NC(=O)C(C)(C)N1CCCCC1)C1CCCCC1)C(C)(C)C)C(C)(C)C21CCC1)C(=O)NS(=O)(=O)C1CC1` [Compound 104, (5R,8S)-7-[(2S)-2-({cyclohexyl[(2-methyl-2-piperidin-1-ylpropanoyl)amino]acetyl}amino)-3,3-dimethylbutanoyl]-N-{(1R,2S)-1-[(cyclopropylsulfonyl)carba-moyl]-2-vinylcyclopropyl}-10,10-dimethyl-7-azadispiro[3.0.4.1]decane-8-carboxamide], with 0.7 nM.

Still in this assay, the particulars now being: read-out: Protease IC50.
With `C=C[C@@H]1C[C@]1(NC(=O)[C@@H]1C[C@@]2(CN1C(=O)[C@@H](NC(=O)[C@@H](CC(=O)N1CCCCC1)C(C)(C)C)C(C)(C)C)C(C)(C)C21CCC1)C(=O)NS(=O)(=O)C1CC1` [Compound 60, (5R,8S)-N-{(1R,2S)-1-[(cyclopropylsulfonyl)carba-moyl]-2-vinylcyclopropyl}-7-[(2S)-2-{[(2S)-3,3-dimethyl-2-(2-oxo-2-piperidin-1-ylethyl)butanoyl]amino}-3,3-dimethylbutanoyl]-10,10-dimethyl-7-azadispiro[3.0.4.1]decane-8-carboxamide], the IC50 came out at 200 nM.
Same read-out and setting: then `C=C[C@@H]1C[C@]1(NC(=O)[C@@H]1C[C@@]2(CN1C(=O)[C@@H](NC(=O)[C@@H](NS(=O)(=O)Cc1ccccc1)C(C)(C)C)C(C)(C)C)C(C)(C)C21CCC1)C(=O)NS(=O)(=O)C1CC1` [Compound 50, (5R,8S)-7-[(2S)-2-({(2S)-2-[(benzylsulfonyl)amino]-3,3-dimethylbutanoyl}amino)-3,3-dimethylbutanoyl]-N-{(1R,2S)-1-[(cyclopropylsulfonyl)carba-moyl]-2-vinylcyclopropyl}-10,10-dimethyl-7-azadispiro[3.0.4.1]decane-8-carboxamide], with 20 nM.
